{
  "source": "patent US20040058428A1",
  "about": "(priority 2002, published 2004)",
  "key": {"Staphylococcus aureus": {"tested_on": "Staphylococcus aureus", "assay_type": "cell-based"}, "B. anthracis": {"tested_on": "B. anthracis", "assay_type": "cell-based, Bacillus anthracis"}, "B. cereus strains": {"tested_on": "B. cereus strains", "assay_type": "cell-based"}, "B. subtilis": {"tested_on": "B. subtilis", "assay_type": "cell-based"}, "E. coli": {"tested_on": "E. coli", "assay_type": "cell-based, Escherichia coli"}, "B. thuringiensis": {"tested_on": "B. thuringiensis", "assay_type": "cell-based"}, "Klebsiella pneumoniae": {"tested_on": "Klebsiella pneumoniae", "assay_type": "cell-based"}, "B. megaterium": {"tested_on": "B. megaterium", "assay_type": "cell-based"}, "Citrobacter freundii": {"tested_on": "Citrobacter freundii", "assay_type": "cell-based"}, "mold colonies": {"tested_on": "mold colonies", "assay_type": "cell-based"}, "[1]": {"tested_on": "13 diverse bacterial stock species", "assay_type": "cell-based"}, "[2]": {"tested_on": "non-anthracis gram positive species", "assay_type": "cell-based"}},
  "data": [
    {"molecule": "O=C([O-])CN(CCN(CC(=O)O)CC(=O)O)CC(=O)[O-].[Na+].[Na+]", "note": "[EDTA, disodium ethylenediaminetetraacetate]", "values": [
      {"measurement": "effect on Staphylococcus aureus growth", "setting": "Staphylococcus aureus", "value": "no effect"},
      {"measurement": "effect on B. anthracis growth", "setting": "B. anthracis", "value": "undesirably inhibiting"}
    ]},
    {"molecule": "CO/N=C(\\C(=O)N[C@@H]1C(=O)N2C(C(=O)O)=C(COC(C)=O)CS[C@H]12)c1csc(N)n1", "note": "[cefotaxime]", "values": [
      {"measurement": "growth of Staphylococcus aureus", "setting": "Staphylococcus aureus", "value": "inhibited"},
      {"measurement": "appearance of B. anthracis colonies", "setting": "B. anthracis", "value": "failed to appear"},
      {"measurement": "growth of some strains of B. cereus", "setting": "B. cereus strains", "value": "grow to form colonies"},
      {"measurement": "growth of B. subtilis", "setting": "B. subtilis", "value": "inhibited"},
      {"measurement": "growth of E. coli", "setting": "E. coli", "value": "inhibited"},
      {"measurement": "growth of B. thuringiensis", "setting": "B. thuringiensis", "value": "inhibited"},
      {"measurement": "growth of Klebsiella pneumoniae", "setting": "Klebsiella pneumoniae", "value": "inhibited"},
      {"measurement": "growth of B. megaterium", "setting": "B. megaterium", "value": "inhibited"},
      {"measurement": "growth of Citrobacter freundii", "setting": "Citrobacter freundii", "value": "inhibited"}
    ]},
    {"molecule": "C[C@@H]1C[C@@H]([C@H](O)CC2CC(=O)NC(=O)C2)C(=O)[C@@H](C)C1", "note": "[cycloheximide]", "values": [
      {"measurement": "effect on mold contamination", "setting": "mold colonies", "value": "eliminated all mold contamination"},
      {"measurement": "effect on pattern of bacterial growth", "setting": "[1]", "value": "did not alter the pattern of bacterial growth"}
    ]},
    {"molecule": "[H]/N=C(/N)N[C@H]1[C@H](O)[C@@H](O)[C@H](O[C@@H]2O[C@@H](C)[C@](O)(C=O)[C@H]2O[C@@H]2O[C@@H](CO)[C@H](O)[C@@H](O)[C@@H]2NC)[C@@H](N/C(N)=N\\[H])[C@@H]1O", "note": "[streptomycin]", "values": [
      {"measurement": "growth of E. coli strains", "setting": "E. coli", "value": "inhibited"}
    ]},
    {"molecule": "CC(=O)[O-].[Tl+]", "note": "[thallous acetate]", "values": [
      {"measurement": "susceptibility of Staphylococcus aureus", "setting": "Staphylococcus aureus", "value": "completely resistant"},
      {"measurement": "B. anthracis growth and colony formation", "setting": "B. anthracis", "value": "allowed B. anthracis to grow readily and form colonies"},
      {"measurement": "delay of appearance of visible B. anthracis colonies", "setting": "B. anthracis", "value": "delayed approximately one day"},
      {"measurement": "restriction of growth of non-anthracis gram positive species including some B. cereus strains", "setting": "[2]", "value": "not sufficiently restrictive"},
      {"measurement": "restriction of non-anthracis gram positive spore forming species (including some B. cereus strains)", "setting": "[2]", "value": "adequately restrictive"}
    ]},
    {"molecule": "lysostaphin", "values": [
      {"measurement": "effect on Staphylococcus aureus growth", "setting": "Staphylococcus aureus", "value": "severely retarded"},
      {"measurement": "effect on B. anthracis growth", "setting": "B. anthracis", "value": "without affecting"}
    ]},
    {"molecule": "polymyxin B sulfate", "values": [
      {"measurement": "growth of E. coli strains", "setting": "E. coli", "value": "not inhibited"}
    ]}
  ]
}
